Measured values taken from patent US10987349B2, “Antitumor agent and bromodomain inhibitor” (FUJIFILM Corporation, priority 2016, dated 2021).

Key:
c-Myc gene = assay: Expression of c-Myc gene in MV4-11 cells, RT-PCR; type: cell-based, human; conditions: MV4-11 cells, 10, 30 or 100 nmol/L, 6 hours
Method: A fluctuation in the expression of c-Myc, IL-7R and HEXIM1 genes in MV4-11 (ATCC) cells treated with the test compound was analyzed according to a reverse transcription polymerase chain reaction (RT-PCR) method.
MV4-11 cells were cultured for 6 hours in an RPMI-1640 medium supplemented with penicillin/streptomycin and FBS with a final concentration of 10%, to which the compound of Example 14 was added to a concentration of 10 nmol/L, 30 nmol/L or 100 nmol/L. On the other hand, a non-treatment group (Non-treatment) was established by culturing MV4-11 cells for 6 hours in the above-described medium, to which the compound of Example 14 was not added. Using Rneasy (registered trademark) (Qiagen), RNA was extracted from the above-described MV4-11 cells in accordance with the instruction manual included with the aforementioned device. […] Thereafter, a PCR reaction was carried out for 40 cycles (a cycle consisting of 95° C.-5 seconds and 60° C.-30 seconds.) Subsequently, the obtained reaction product was measured.
As a housekeeping gene, the expression level of GAPDH (Glyceraldehyde 3-phosphate dehydrogenase) was also evaluated. The ratio of the expression level of the mRNA of each of c-Myc, IL-7R and HEXIM1 to the expression level of GAPDH was calculated, and the expression level of each gene (relative expression level) was then quantified. […]

NCI-H1299 = assay: Cell growth test (Cell Titer Blue) NCI-H1299; type: cell-based; conditions: Homo sapiens, 72 h, NCI-H1299, Lung cancer, 3 days
Method: (§1) Moreover, the compound of Example 14 was subjected to a cell growth test using various types of cell lines.
(§2) All cell lines other than the below-noticed cells were each seeded in a well plate, in which an RPMI-1640 medium supplemented with penicillin/streptomycin and FBS with a final concentration of 10% was placed. The human prostate cancer cell line VCaP (ATCC) was seeded in a well plate, in which DMEM medium supplemented with penicillin/streptomycin and FBS with a final concentration of 10% was placed. […] Thereafter, using Enspire Multimode Plate Reader (PerkinElmer), the amount of fluorescence at an excitation wavelength of 531 nm and a fluorescence wavelength of 615 nm was measured. Since the amount of fluorescence is in proportion to the concentration of a florescent product resorufin that is converted from resazurin as a redox dye by living cells, the amount of fluorescence was used as an indicator of the number of living cells. The growth inhibition percentage of the test compound in each concentration was calculated according to the following equation. Growth inhibition percentage (%)=(amount of fluorescence in test compound−added well)/(amount of fluorescence in DMSO−added well)×100 […]

MDA-MB-468 = assay: Cell growth test (Cell Titer Blue) MDA-MB-468; type: cell-based; conditions: Homo sapiens, 72 h, MDA-MB-468, Breast cancer, 3 days
Method: as §1, §2

Daudi = assay: Cell growth test (Cell Titer Blue) Daudi; type: cell-based; conditions: Homo sapiens, 72 h, Lymphoma, 3 days
Method: as §1, §2

[1] = tested on: MV4-11 subcutaneously transplanted tumor; assay: Medicinal effect test, MV4-11-subcutaneously-transplanted cancer-bearing mouse models, intravenous administration; type: in vivo; conditions: intravenously, once per day, 25 days, BALB/c nu/nu mice
Method: T/C (%) was calculated from the average tumor volume of each group according to the following equation, and medicinal effects were then evaluated. T/C(%)=[1−(average tumor volume of drug administration group)/(average tumor volume of solvent administration group)]×100%
Moreover, using the above-described mouse models, medicinal effects obtained upon intravenous administration were evaluated.
The human acute myeloid leukemia cell line MV4-11 (ATCC) was suspended in a mixture of RPMI-1640 […] and Matrigel (Corning), and the obtained mixture was then subcutaneously transplanted into 6-week-old female BALB/c nu/nu mice (CLEA Japan, Inc.). After confirming that the average tumor volume exceeded 200 mm^3, a test compound was dissolved in a solvent (a normal saline containing 1 equivalent of hydrochloric acid), and the obtained solution was then intravenously administered to the mice at a daily dose of 10 to 30 mg/kg, once per day, for 25 days. As a negative control, a solvent administration group involving administration of a normal saline was established. The tumor diameter was measured on a daily basis, and the tumor volume was calculated. In the same manner as described above, the tumor volume and T/C (%) were calculated, and medicinal effects were then evaluated.

NOMO-1 = assay: Cell growth test (Cell Titer Blue) NOMO-1; type: cell-based; conditions: Homo sapiens, 72 h, NOMO-1, Acute myeloid leukemia, 3 days
Method: as §1, §2

DU-145 = assay: Cell growth test (Cell Titer Blue) DU-145; type: cell-based; conditions: Homo sapiens, 72 h, DU-145, Prostate cancer, 3 days
Method: as §1, §2

Saos-2 = assay: Cell growth test (Cell Titer Blue) Saos-2; type: cell-based; conditions: Homo sapiens, 72 h, Saos-2, Sarcoma, 3 days
Method: as §1, §2

MDA-MB-231 = assay: Cell growth test (Cell Titer Blue) MDA-MB-231; type: cell-based; conditions: Homo sapiens, 72 h, MDA-MB-231, Breast cancer, 3 days
Method: as §1, §2

NCI-H69 = assay: Cell growth test (Cell Titer Blue) NCI-H69; type: cell-based; conditions: Homo sapiens, 72 h, NCI-H69, Lung cancer, 3 days
Method: as §1, §2

T47D = assay: Cell growth test (Cell Titer Blue) T47D; type: cell-based; conditions: Homo sapiens, 72 h, Breast cancer, 3 days
Method: as §1, §2

- GI50 (NCI-H1299): 422 nM
- GI50 (MDA-MB-468): 1200 nM
- GI50 (Daudi): 165 nM
- GI50 (DU-145): 1430 nM
- GI50 (MDA-MB-231): 85 nM
- GI50 (NCI-H69): 975 nM
- GI50 (T47D): 286 nM
Compound: CCn1c(=O)cc(C2CCN(C)CC2)c2cc(C(=O)N(C)c3ccc(C)cc3)ccc21 [Example 14, 1-Ethyl-N-methyl-N-(4-methylphenyl)-4-(1-methylpiperidin-4-yl)-2-oxo-1,2-dihydroquinoline-6-carboxamide]
- mRNA expression of c-Myc (GAPDH correction) (c-Myc gene): decreased in a compound concentration-dependent manner
- T/C (%) ([1]; 10 mg/kg): 66%
- T/C (%) ([1]; 30 mg/kg): 78%
- GI50 (NOMO-1): 62 nM
- GI50 (Saos-2): 2620 nM
